Measurements: PubChem BioAssay AID2060350 (Molecular Pharmacology Branch, DTP, NCI, 2025)

Tested on: PDC 521955-158-R6-J3 spheroids, viability
Test: Anticancer human tumor 521955-158-R6-J3-PDC patient-derived pancreatic carcinoma cell line growth inhibition [TAK]
Conditions: spheroids with HUVEC and MSC; for IC50: curve of first compound; for viability, T/C: stronger effect = lower value
Outline: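 Spheroids of 60% malignant cells, 25% HUVEC and 15% hMSC were exposed to targeted agents combined with TAK-243 or ipatasertib. Concentrations started at or near clinical Cmax (10 microM if unknown) and descended in half-log steps.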

[1] = second compound 0.3 µM, first compound 0.0316 µM
[2] = second compound 0.3 µM, first compound 0.1 µM
[3] = second compound 0.3 µM, first compound 0.316 µM
[4] = second compound 0.3 µM, first compound 1 µM
[5] = second compound 0.3 µM, first compound 3.16 µM
[6] = second compound 0.3 µM, first compound 10 µM
[7] = second compound 0.949 µM, first compound 0.0316 µM
[8] = second compound 0.949 µM, first compound 0.1 µM
[9] = second compound 0.949 µM, first compound 0.316 µM
[10] = second compound 0.949 µM, first compound 1 µM
[11] = second compound 0.949 µM, first compound 3.16 µM
[12] = second compound 0.949 µM, first compound 10 µM
[13] = second compound 3 µM, first compound 0.0316 µM
[14] = second compound 3 µM, first compound 0.1 µM
[15] = second compound 3 µM, first compound 0.316 µM
[16] = second compound 3 µM, first compound 1 µM
[17] = second compound 3 µM, first compound 3.16 µM
[18] = second compound 3 µM, first compound 10 µM
[19] = second compound 9.49 µM, first compound 0.0316 µM
[20] = second compound 9.49 µM, first compound 0.1 µM
[21] = second compound 9.49 µM, first compound 0.316 µM
[22] = second compound 9.49 µM, first compound 1 µM
[23] = second compound 9.49 µM, first compound 3.16 µM
[24] = second compound 9.49 µM, first compound 10 µM
[25] = second compound 30 µM, first compound 0.0316 µM
[26] = second compound 30 µM, first compound 0.1 µM
[27] = second compound 30 µM, first compound 0.316 µM
[28] = second compound 30 µM, first compound 1 µM
[29] = second compound 30 µM, first compound 3.16 µM
[30] = second compound 30 µM, first compound 10 µM
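Note: spheroids exposed to drugs for 7 days before readout.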
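Throughout, for viability, T/C: 100% = DMSO vehicle control viability.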

CC(C)(C)c1nc(-c2cccc(NS(=O)(=O)c3c(F)cccc3F)c2F)c(-c2ccnc(N)n2)s1 + CC(C)NCC(C(=O)N1CCN(c2ncnc3c2C(C)CC3O)CC1)c1ccc(Cl)cc1
IC50 (second compound 0.3 µM): > 10 µM | IC50 (second compound 0.949 µM): > 10 µM | IC50 (second compound 3 µM): > 10 µM | IC50 (second compound 9.49 µM): > 10 µM | IC50 (second compound 30 µM): > 10 µM | viability, T/C [1]: 104% | viability, T/C [2]: 128% | viability, T/C [3]: 136% | viability, T/C [4]: 129% | viability, T/C [5]: 107% | viability, T/C [6]: 107% | viability, T/C [7]: 98.7% | viability, T/C [8]: 123% | viability, T/C [9]: 136% | viability, T/C [10]: 129% | viability, T/C [11]: 105% | viability, T/C [12]: 85.8% | viability, T/C [13]: 91.9% | viability, T/C [14]: 110% | viability, T/C [15]: 117% | viability, T/C [16]: 119% | viability, T/C [17]: 100% | viability, T/C [18]: 73.8% | viability, T/C [19]: 84.2% | viability, T/C [20]: 97.4% | viability, T/C [21]: 118% | viability, T/C [22]: 119% | viability, T/C [23]: 94.8% | viability, T/C [24]: 65% | viability, T/C [25]: 87.9% | viability, T/C [26]: 83.5% | viability, T/C [27]: 95.5% | viability, T/C [28]: 83.8% | viability, T/C [29]: 73.2% | viability, T/C [30]: 68.6%

CC(C)CC(NC(=O)CNC(=O)c1cc(Cl)ccc1Cl)B1OC(=O)CC(CC(=O)O)(C(=O)O)O1 (stereo not given) + CC(C)NCC(C(=O)N1CCN(c2ncnc3c2C(C)CC3O)CC1)c1ccc(Cl)cc1
IC50 (second compound 0.3 µM): 0.0559 µM | IC50 (second compound 0.949 µM): 0.0543 µM | IC50 (second compound 3 µM): 0.0491 µM | IC50 (second compound 9.49 µM): 0.0418 µM | IC50 (second compound 30 µM): 0.0336 µM | viability, T/C (second compound 0.3 µM, first compound 0.000316 µM): 86.8% | viability, T/C (second compound 0.3 µM, first compound 0.001 µM): 92.5% | viability, T/C (second compound 0.3 µM, first compound 0.00316 µM): 106% | viability, T/C (second compound 0.3 µM, first compound 0.01 µM): 97.8% | viability, T/C [1]: 92.9% | viability, T/C [2]: 6.28% | viability, T/C (second compound 0.949 µM, first compound 0.000316 µM): 84.3% | viability, T/C (second compound 0.949 µM, first compound 0.001 µM): 93.8% | viability, T/C (second compound 0.949 µM, first compound 0.00316 µM): 97.9% | viability, T/C (second compound 0.949 µM, first compound 0.01 µM): 100% | viability, T/C [7]: 89.1% | viability, T/C [8]: 5.88% | viability, T/C (second compound 3 µM, first compound 0.000316 µM): 86.3% | viability, T/C (second compound 3 µM, first compound 0.001 µM): 90.7% | viability, T/C (second compound 3 µM, first compound 0.00316 µM): 92.6% | viability, T/C (second compound 3 µM, first compound 0.01 µM): 104% | viability, T/C [13]: 78.7% | viability, T/C [14]: 3.93% | viability, T/C (second compound 9.49 µM, first compound 0.000316 µM): 92.7% | viability, T/C (second compound 9.49 µM, first compound 0.001 µM): 92.5% | viability, T/C (second compound 9.49 µM, first compound 0.00316 µM): 96.9% | viability, T/C (second compound 9.49 µM, first compound 0.01 µM): 98% | viability, T/C [19]: 65% | viability, T/C [20]: 3.75% | viability, T/C (second compound 30 µM, first compound 0.000316 µM): 82.3% | viability, T/C (second compound 30 µM, first compound 0.001 µM): 85.2% | viability, T/C (second compound 30 µM, first compound 0.00316 µM): 85% | viability, T/C (second compound 30 µM, first compound 0.01 µM): 99.5% | viability, T/C [25]: 52.7% | viability, T/C [26]: 2.76%

CCCS(=O)(=O)Nc1ccc(F)c(C(=O)c2c[nH]c3ncc(-c4ccc(Cl)cc4)cc23)c1F + CC(C)NCC(C(=O)N1CCN(c2ncnc3c2C(C)CC3O)CC1)c1ccc(Cl)cc1
IC50 (second compound 0.3 µM): > 100 µM | IC50 (second compound 0.949 µM): > 100 µM | IC50 (second compound 3 µM): 64 µM | IC50 (second compound 9.49 µM): 60.1 µM | IC50 (second compound 30 µM): 21.8 µM | viability, T/C [3]: 143% | viability, T/C [4]: 89.8% | viability, T/C [5]: 96.1% | viability, T/C [6]: 92.2% | viability, T/C (second compound 0.3 µM, first compound 31.6 µM): 79.8% | viability, T/C (second compound 0.3 µM, first compound 100 µM): 176% | viability, T/C [9]: 98.1% | viability, T/C [10]: 108% | viability, T/C [11]: 80.6% | viability, T/C [12]: 128% | viability, T/C (second compound 0.949 µM, first compound 31.6 µM): 79.5% | viability, T/C (second compound 0.949 µM, first compound 100 µM): 159% | viability, T/C [15]: 93.3% | viability, T/C [16]: 97.5% | viability, T/C [17]: 81% | viability, T/C [18]: 97.4% | viability, T/C (second compound 3 µM, first compound 31.6 µM): 66.6% | viability, T/C (second compound 3 µM, first compound 100 µM): 39.5% | viability, T/C [21]: 94.8% | viability, T/C [22]: 98.5% | viability, T/C [23]: 78.5% | viability, T/C [24]: 88.9% | viability, T/C (second compound 9.49 µM, first compound 31.6 µM): 87.4% | viability, T/C (second compound 9.49 µM, first compound 100 µM): 20.4% | viability, T/C [27]: 106% | viability, T/C [28]: 108% | viability, T/C [29]: 132% | viability, T/C [30]: 99.8% | viability, T/C (second compound 30 µM, first compound 31.6 µM): 20.2% | viability, T/C (second compound 30 µM, first compound 100 µM): 7.85%
